Experimental data published in US4613355A, “Antibiotic having herbicidal activity” (Satoshi Omura, priority 1983, dated 1986).
Where a name gives a salt, the structure may show the parent alone.

How the values were obtained:
Type in all cases: in vivo
Parameters in all cases: key: 0 indicates no effect; 5 indicates complete kill
Digitaria adscendens = assay: Foliage treatment (Example 8); details: Plant No. 10 Digitaria adscendens
Method: (§1) Aqueous solutions of Phosalacine (Na salt) at different concentrations were applied at a rate of 1500 liters per hectare to naturally occurring plants or plants which were cultured on plates as shown in the following Table at certain stages of growth. […] One month after the foliage treatment, the inhibition of regrowth of the plants was visually investigated.

Raphanus sativus = assay: Foliage treatment (Example 8); details: Plant No. 32 Raphanus sativus
Method: as §1

Pteridium aquilinum = assay: Foliage treatment of naturally growing weeds and brush (Example 9); details: Plant No. 20 Pteridium aquilinum, One month
Description: (§2) Aqueous solutions of Phosalacine (Na salt) at different concentrations and 0.1% of octylphenylpolyoxy ethanol as surfactant were applied to the area where various weeds and brush were naturally growing at a rate of 1500 liter per hectare. One month after the foliage treatment, damage to weeds and brush was visually assessed on a scale of from 0 to 5 where 0 indicates no effect and 5 indicates complete kill as hereinbefore defined.

Zanthoxylum piperitum = assay: as above; details: Plant No. 19 Zanthoxylum piperitum, One month
Description: as §2

Viburnum dilatatum = assay: as above; details: Plant No. 21 Viburnum dilatatum, One month
Description: as §2

[1] = system: various weeds and brush (overall evaluation); assay: as above; details: OE overall evaluation, One month
Description: as §2

Smilax china = assay: as above; details: Plant No. 17 Smilax china, One month
Description: as §2

Rubus palmatus = assay: as above; details: Plant No. 18 Rubus palmatus, One month
Description: as §2

Castanea crenata = assay: as above; details: Plant No. 8 Castanea crenata, One month
Description: as §2

Brassica oleracea = assay: Foliage treatment (Example 8); details: Plant No. 28 Brassica oleracea
Method: (§3) Aqueous solutions of Phosalacine (Na salt) at different concentrations were applied at a rate of 1500 liters per hectare to naturally occurring plants or plants which were cultured on plates as shown in the following Table at certain stages of growth. […]

Miscanthus sinensis = assay: Foliage treatment (Example 8); details: Plant No. 5 Miscanthus sinensis
Method: as §3

Euphonia supina = assay: Foliage treatment (Example 8); details: Plant No. 36 Euphonia supina
Method: as §3

Glycine max = assay: Foliage treatment (Example 8); details: Plant No. 34 Glycine max
Method: as §3

Arctium lappa = assay: Foliage treatment (Example 8); details: Plant No. 30 Arctium lappa, 14 days
Method: as §3

Artemisia princeps = assay: Foliage treatment (Example 8); details: Plant No. 1 Artemisia princeps
Method: as §3

Cucumis sativus = assay: Foliage treatment (Example 8); details: Plant No. 33 Cucumis sativus
Method: as §3

Oxalis corniculata = assay: Foliage treatment (Example 8); details: Plant No. 35 Oxalis corniculata
Method: as §3

[2] = system: Eleucine indica var. carocana; assay: Foliage treatment (Example 8); details: Plant No. 24 Eleucine indica var. carocana
Method: as §3

Allium fistulosum = assay: Foliage treatment (Example 8); details: Plant No. 27 Allium fistulosum
Method: as §3

**Q.** With `CC(C)C[C@H](NC(=O)[C@H](C)NC(=O)[C@@H](N)CCP(C)(=O)O)C(=O)O` [Phosalacine (Na salt)] as the compound, how does the “damage to the plants, scale 0 to 5” value (Digitaria adscendens; 0.05%, 7 days) read?
**A.** 3

**Q.** And the “damage to the plants, scale 0 to 5” value (Digitaria adscendens; 0.05%, 14 days)?
**A.** 4

**Q.** And the “damage to the plants, scale 0 to 5” value (Digitaria adscendens; 0.1%, 7 days)?
**A.** 5

**Q.** What about the “damage to the plants, scale 0 to 5” value (Digitaria adscendens; 0.1%, 14 days) of the same compound?
**A.** 5

**Q.** And the “damage to the plants, scale 0 to 5” value (Raphanus sativus; 0.05%, 7 days)?
**A.** 3

**Q.** And the “damage to the plants, scale 0 to 5” value (Raphanus sativus; 0.05%, 14 days)?
**A.** 4

**Q.** What about the “damage to the plants, scale 0 to 5” value (Raphanus sativus; 0.1%, 7 days) of the same compound?
**A.** 5

**Q.** What about the “damage to the plants, scale 0 to 5” value (Raphanus sativus; 0.1%, 14 days) of the same compound?
**A.** 5

**Q.** And the “damage to weeds and brush, scale 0 to 5” value (Pteridium aquilinum; 0.05%)?
**A.** 3

**Q.** What about the “damage to weeds and brush, scale 0 to 5” value (Pteridium aquilinum; 0.1%) of the same compound?
**A.** 5

**Q.** What about the “damage to weeds and brush, scale 0 to 5” value (Pteridium aquilinum; 0.2%) of the same compound?
**A.** 5

**Q.** And the “damage to weeds and brush, scale 0 to 5” value (Zanthoxylum piperitum; 0.05%)?
**A.** 3

**Q.** What about the “damage to weeds and brush, scale 0 to 5” value (Zanthoxylum piperitum; 0.1%) of the same compound?
**A.** 5

**Q.** What about the “damage to weeds and brush, scale 0 to 5” value (Zanthoxylum piperitum; 0.2%) of the same compound?
**A.** 5

**Q.** And the “damage to weeds and brush, scale 0 to 5” value (Viburnum dilatatum; 0.05%)?
**A.** 3

**Q.** What about the “damage to weeds and brush, scale 0 to 5” value (Viburnum dilatatum; 0.1%) of the same compound?
**A.** 5

**Q.** And the “damage to weeds and brush, scale 0 to 5” value (Viburnum dilatatum; 0.2%)?
**A.** 5

**Q.** What about the “damage to weeds and brush, scale 0 to 5” value ([1]; 0.05%) of the same compound?
**A.** 3

**Q.** And the “damage to weeds and brush, scale 0 to 5” value ([1]; 0.1%)?
**A.** 5

**Q.** What about the “damage to weeds and brush, scale 0 to 5” value ([1]; 0.2%) of the same compound?
**A.** 5

**Q.** What about the “damage to weeds and brush, scale 0 to 5” value (Smilax china; 0.05%) of the same compound?
**A.** 3

**Q.** What about the “damage to weeds and brush, scale 0 to 5” value (Smilax china; 0.1%) of the same compound?
**A.** 5

**Q.** And the “damage to weeds and brush, scale 0 to 5” value (Smilax china; 0.2%)?
**A.** 5

**Q.** What about the “damage to weeds and brush, scale 0 to 5” value (Rubus palmatus; 0.05%) of the same compound?
**A.** 3

**Q.** And the “damage to weeds and brush, scale 0 to 5” value (Rubus palmatus; 0.1%)?
**A.** 5

**Q.** And the “damage to weeds and brush, scale 0 to 5” value (Rubus palmatus; 0.2%)?
**A.** 5

**Q.** What about the “damage to weeds and brush, scale 0 to 5” value (Castanea crenata; 0.05%) of the same compound?
**A.** 3

**Q.** And the “damage to weeds and brush, scale 0 to 5” value (Castanea crenata; 0.1%)?
**A.** 5

**Q.** And the “damage to weeds and brush, scale 0 to 5” value (Castanea crenata; 0.2%)?
**A.** 5

**Q.** And the “damage to the plants, scale 0 to 5” value (Brassica oleracea; 0.05%, 7 days)?
**A.** 3

**Q.** What about the “damage to the plants, scale 0 to 5” value (Brassica oleracea; 0.05%, 14 days) of the same compound?
**A.** 4

**Q.** And the “damage to the plants, scale 0 to 5” value (Brassica oleracea; 0.1%, 7 days)?
**A.** 5

**Q.** What about the “damage to the plants, scale 0 to 5” value (Brassica oleracea; 0.1%, 14 days) of the same compound?
**A.** 5

**Q.** And the “damage to the plants, scale 0 to 5” value (Miscanthus sinensis; 0.05%, 7 days)?
**A.** 3

**Q.** And the “damage to the plants, scale 0 to 5” value (Miscanthus sinensis; 0.05%, 14 days)?
**A.** 4

**Q.** And the “damage to the plants, scale 0 to 5” value (Miscanthus sinensis; 0.1%, 7 days)?
**A.** 5

**Q.** And the “damage to the plants, scale 0 to 5” value (Miscanthus sinensis; 0.1%, 14 days)?
**A.** 5

**Q.** And the “damage to the plants, scale 0 to 5” value (Euphonia supina; 0.05%, 7 days)?
**A.** 3

**Q.** And the “damage to the plants, scale 0 to 5” value (Euphonia supina; 0.05%, 14 days)?
**A.** 4

**Q.** And the “damage to the plants, scale 0 to 5” value (Euphonia supina; 0.1%, 7 days)?
**A.** 5

**Q.** And the “damage to the plants, scale 0 to 5” value (Euphonia supina; 0.1%, 14 days)?
**A.** 5

**Q.** And the “damage to the plants, scale 0 to 5” value (Glycine max; 0.05%, 7 days)?
**A.** 3

**Q.** And the “damage to the plants, scale 0 to 5” value (Glycine max; 0.05%, 14 days)?
**A.** 5

**Q.** What about the “damage to the plants, scale 0 to 5” value (Glycine max; 0.1%, 7 days) of the same compound?
**A.** 5

**Q.** What about the “damage to the plants, scale 0 to 5” value (Glycine max; 0.1%, 14 days) of the same compound?
**A.** 5

**Q.** And the “damage to the plants, scale 0 to 5” value (Arctium lappa; 0.05%)?
**A.** 4

**Q.** What about the “damage to the plants, scale 0 to 5” value (Arctium lappa; 0.1%) of the same compound?
**A.** 5

**Q.** What about the “damage to the plants, scale 0 to 5” value (Artemisia princeps; 0.05%, 7 days) of the same compound?
**A.** 3

**Q.** And the “damage to the plants, scale 0 to 5” value (Artemisia princeps; 0.05%, 14 days)?
**A.** 4

**Q.** And the “damage to the plants, scale 0 to 5” value (Artemisia princeps; 0.1%, 7 days)?
**A.** 5

**Q.** What about the “damage to the plants, scale 0 to 5” value (Artemisia princeps; 0.1%, 14 days) of the same compound?
**A.** 5

**Q.** And the “damage to the plants, scale 0 to 5” value (Cucumis sativus; 0.05%, 7 days)?
**A.** 3

**Q.** And the “damage to the plants, scale 0 to 5” value (Cucumis sativus; 0.05%, 14 days)?
**A.** 4

**Q.** And the “damage to the plants, scale 0 to 5” value (Cucumis sativus; 0.1%, 7 days)?
**A.** 5

**Q.** And the “damage to the plants, scale 0 to 5” value (Cucumis sativus; 0.1%, 14 days)?
**A.** 5

**Q.** What about the “damage to the plants, scale 0 to 5” value (Oxalis corniculata; 0.05%, 7 days) of the same compound?
**A.** 3

**Q.** And the “damage to the plants, scale 0 to 5” value (Oxalis corniculata; 0.05%, 14 days)?
**A.** 4

**Q.** What about the “damage to the plants, scale 0 to 5” value (Oxalis corniculata; 0.1%, 7 days) of the same compound?
**A.** 5

**Q.** What about the “damage to the plants, scale 0 to 5” value (Oxalis corniculata; 0.1%, 14 days) of the same compound?
**A.** 5

**Q.** And the “damage to the plants, scale 0 to 5” value ([2]; 0.05%, 7 days)?
**A.** 3

**Q.** And the “damage to the plants, scale 0 to 5” value ([2]; 0.05%, 14 days)?
**A.** 4

**Q.** What about the “damage to the plants, scale 0 to 5” value ([2]; 0.1%, 7 days) of the same compound?
**A.** 5

**Q.** And the “damage to the plants, scale 0 to 5” value ([2]; 0.1%, 14 days)?
**A.** 5

**Q.** What about the “damage to the plants, scale 0 to 5” value (Allium fistulosum; 0.05%, 7 days) of the same compound?
**A.** 3

**Q.** And the “damage to the plants, scale 0 to 5” value (Allium fistulosum; 0.05%, 14 days)?
**A.** 5

**Q.** And the “damage to the plants, scale 0 to 5” value (Allium fistulosum; 0.1%, 7 days)?
**A.** 5

**Q.** What about the “damage to the plants, scale 0 to 5” value (Allium fistulosum; 0.1%, 14 days) of the same compound?
**A.** 5
